The structures appear in SMILES notation.

This experiment has as its target T1, APOL1 (Homo sapiens, UniProt O14791).
T1 sequence (O14791 1-398): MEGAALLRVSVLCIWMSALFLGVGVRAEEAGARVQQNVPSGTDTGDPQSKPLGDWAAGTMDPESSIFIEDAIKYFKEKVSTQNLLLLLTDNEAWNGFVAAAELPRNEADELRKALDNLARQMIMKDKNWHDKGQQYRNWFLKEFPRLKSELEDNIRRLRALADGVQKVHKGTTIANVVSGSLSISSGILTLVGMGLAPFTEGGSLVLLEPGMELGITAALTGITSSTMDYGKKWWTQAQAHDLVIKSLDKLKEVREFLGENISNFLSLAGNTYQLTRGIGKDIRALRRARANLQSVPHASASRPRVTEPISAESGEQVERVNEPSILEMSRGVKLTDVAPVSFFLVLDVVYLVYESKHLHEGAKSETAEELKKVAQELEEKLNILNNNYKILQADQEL
Kind of experiment: MultiTox-Fluor Multiplex Cytotoxicity Assay, tet-inducible APOL1 T-REx-HEK293 cells (G0, G1 or G2 clone not specified for Table 20). It counts as cell-based. The conditions noted are these: tet-induced, 24 hours with compound, ratio of dead to live cells, read-out: IP50 (i.e., IC50 for cell proliferation). In short, it runs like this: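 HEK293 T-REx cells with tet-inducible APOL1 G0, G1 or G2 clone, 23,400/well, treated with tetracycline plus compound (top 10 μM, 10-point 3-fold, duplicate) for 24 h at 37° C. MultiTox-Fluor dead/live fluorescence ratio, normalized to no-tet (100% viability) and 50 ng/mL tet (0% viability) controls, then curve-fitted.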
Consider `C[C@H]1C[C@@]2(CCN1Cc1cn(Cc3cn(C4COC4)nn3)nn1)OCCc1ccc(Cl)cc12` [Compound 181], for which the IC50 is at most 50 nM.
The figure for `C[C@H]1C[C@@]2(CCN1Cc1cn(Cc3ncc(C(N)=O)s3)nn1)OCCc1ccc(Cl)cc12` [Compound 182] is at most 50 nM; for `C[C@H]1C[C@@]2(CCN1Cc1cn(CCc3nccc(=O)[nH]3)nn1)OCCc1ccc(Cl)cc12` [Compound 183] it is 50 to 500 nM.
Turning to `C[C@H]1C[C@@]2(CCN1Cc1cn(CC3(C(N)=O)CCOCC3)nn1)OCCc1ccc(Cl)cc12` [Compound 184], the IC50 is at most 50 nM.
The figure for `C[C@H]1C[C@@]2(CCN1Cc1cn(Cc3nnc(N(C)C)[nH]3)nn1)OCCc1ccc(Cl)cc12` [Compound 185] is 50 to 500 nM; for `C[C@H]1C[C@@]2(CCN1Cc1cn(CC(=O)Nc3cn[nH]c3)nn1)OCCc1ccc(Cl)cc12` [Compound 186] it is at most 50 nM; for `C[C@H]1C[C@@]2(CCN1Cc1cn(CCNS(=O)(=O)C3CC3)nn1)OCCc1ccc(Cl)cc12` [Compound 187] it is at most 50 nM.
In the case of `C[C@H]1C[C@@]2(CCN1Cc1cn(CC3(C(N)=O)CC3)nn1)OCCc1ccc(Cl)cc12` [Compound 188], the IC50 is at most 50 nM.
The figure for `C[C@H]1C[C@@]2(CCN1Cc1cn(Cc3cn(C4CC4)c(=O)[nH]c3=O)nn1)OCCc1ccc(Cl)cc12` [Compound 189] is at most 50 nM; for `CNC(=O)C1OC2(CCN(Cc3cnn(-c4ccccc4)c3)CC2)c2ccccc21` (stereo not drawn) [Compound 190, N-methyl-1′-[(1-phenylpyrazol-4-yl)methyl]spiro[1H-isobenzofuran-3,4′-piperidine]-1-carboxamide] it is at least 500 nM; for `NC(=O)C1OC2(CCN(Cc3cnn(-c4ccccc4)c3)CC2)c2cc(Cl)ccc21` (stereo not drawn) [Compound 191, 5-chloro-1′-[(1-phenylpyrazol-4-yl)methyl]spiro[1H-isobenzofuran-3,4′-piperidine]-1-carboxamide] it is at most 50 nM.
On to `O=C(O)C1OC2(CCN(Cc3cnn(-c4ccccc4)c3)CC2)c2cc(Cl)ccc21` (stereo not drawn) [Compound 192, 5-chloro-1′-[(1-phenylpyrazol-4-yl)methyl]spiro[1H-isobenzofuran-3,4′-piperidine]-1-carboxylic acid], for which the IC50 was at least 500 nM.
For the molecule `CNC(=O)C1OC2(CCN(Cc3cnn(-c4ccccc4)c3)CC2)c2cc(Cl)ccc21` (stereo not drawn) [Compound 195, 5-chloro-N-methyl-1′-[(1-phenylpyrazol-4-yl)methyl]spiro[1H-isobenzofuran-3,4′-piperidine]-1-carboxamide], the IC50 is at most 50 nM.
With `Cc1ccc2c(c1)C1(CCN(Cc3cnn(-c4ccccc4)c3)CC1)OC2C(N)=O` (stereo not drawn) [Compound 196], the IC50 is at most 50 nM.
In the case of `NC(=O)C1OC2(CCN(Cc3cnn(-c4ccccc4)c3)CC2)c2cc(C(F)(F)F)ccc21` (stereo not drawn) [Compound 197], the IC50 is at most 50 nM.
In the case of `CNC(=O)C1OC2(CCN(Cc3cnn(-c4ccccc4)c3)CC2)c2cc(C)ccc21` (stereo not drawn) [Compound 198], the IC50 was at most 50 nM.
`CNC(=O)C1OC2(CCN(Cc3cnn(-c4ccccc4)c3)CC2)c2cc(C(F)(F)F)ccc21` (stereo not drawn) [Compound 199]: the IC50 is 50 to 500 nM.
For the molecule `CNC(=O)C1OC2(CCN(Cc3cnn(C4CCOCC4)c3)CC2)c2cc(Cl)ccc21` (stereo not drawn) [Compound 200], the IC50 lay in the range of 50 to 500 nM.
As to `NC(=O)C1OC2(CCN(Cc3cnn(-c4ccccn4)c3)CC2)c2cc(Cl)ccc21` (stereo not drawn) [Compound 201], the IC50 is at most 50 nM.
In the case of `CNC(=O)C1OC2(CCN(Cc3cnn(-c4cccnc4)c3)CC2)c2cc(Cl)ccc21` (stereo not drawn) [Compound 202] it was at most 50 nM; in that of `N#Cc1ccc2c(c1)C1(CCN(Cc3cnn(-c4ccccc4)c3)CC1)OC2C(N)=O` (stereo not drawn) [Compound 203, 5-cyano-1′-[(1-phenylpyrazol-4-yl)methyl]spiro[1H-isobenzofuran-3,4′-piperidine]-1-carboxamide], at most 50 nM.
Regarding `CNC(=O)C1OC2(CCN(Cc3cnn(-c4ccccc4)c3)CC2)c2cc(C#N)ccc21` (stereo not drawn) [Compound 204, 5-cyano-N-methyl-1′-[(1-phenylpyrazol-4-yl)methyl]spiro[1H-isobenzofuran-3,4′-piperidine]-1-carboxamide], the IC50 fell in the range of 50 to 500 nM.
In the case of `CCc1ccc2c(c1)C1(CCN(Cc3cnn(-c4ccccc4)c3)CC1)OC2C(N)=O` (stereo not drawn) [Compound 205, 5-ethyl-1′-[(1-phenylpyrazol-4-yl)methyl]spiro[1H-isobenzofuran-3,4′-piperidine]-1-carboxamide], the IC50 was at most 50 nM.
Turning to `CCc1ccc2c(c1)C1(CCN(Cc3cnn(-c4ccccc4)c3)CC1)OC2C(=O)NC` (stereo not drawn) [Compound 206, 5-ethyl-N-methyl-1′-[(1-phenylpyrazol-4-yl)methyl]spiro[1H-isobenzofuran-3,4′-piperidine]-1-carboxamide], the IC50 is 50 to 500 nM.
In the case of `CS(=O)(=O)CCn1cc(CN2CCC3(CC2)OC(C(N)=O)c2ccc(C(F)(F)F)cc23)nn1` (stereo not drawn) [Compound 207, 1′-[[1-(2-methylsulfonylethyl)triazol-4-yl]methyl]-5-(trifluoromethyl)spiro[1H-isobenzofuran-3,4′-piperidine]-1-carboxamide] it was at least 500 nM; in that of `CS(=O)(=O)CCn1cc(CN2CCC3(CC2)OC(C(N)=O)c2ccc(Cl)cc23)nn1` (stereo not drawn) [Compound 208, 5-chloro-1′-[[1-(2-methylsulfonylethyl)triazol-4-yl]methyl]spiro[1H-isobenzofuran-3,4′-piperidine]-1-carboxamide], at least 500 nM; in that of `Cc1ncc(-n2cc(CN3CCC4(CC3)OC(C(N)=O)c3ccc(Cl)cc34)cn2)cn1` (stereo not drawn) [Compound 209, 5-chloro-1′-[[1-(2-methylpyrimidin-5-yl)pyrazol-4-yl]methyl]spiro[1H-isobenzofuran-3,4′-piperidine]-1-carboxamide], at most 50 nM.
As for `CNC(=O)C1OC2(CCN(Cc3cnn(CCS(C)(=O)=O)c3)CC2)c2cc(Cl)ccc21` (stereo not drawn) [Compound 210, 5-chloro-N-methyl-1′-[[1-(2-methylsulfonylethyl)pyrazol-4-yl]methyl]spiro[1H-isobenzofuran-3,4′-piperidine]-1-carboxamide], the IC50 was 50 to 500 nM.
For the molecule `CNC(=O)C1OC2(CCN(Cc3cnn(-c4cnc(C)nc4)c3)CC2)c2cc(Cl)ccc21` (stereo not drawn) [Compound 211, 5-chloro-N-methyl-1′-[[1-(2-methylpyrimidin-5-yl)pyrazol-4-yl]methyl]spiro[1H-isobenzofuran-3,4′-piperidine]-1-carboxamide], the IC50 was at most 50 nM.
`NC(=O)C1OC2(CCN(Cc3cnn(-c4cccc(C(F)(F)F)c4)c3)CC2)c2cc(Cl)ccc21` (stereo not drawn) [Compound 212, 5-chloro-1′-[[1-[3-(trifluoromethyl)phenyl]pyrazol-4-yl]methyl]spiro[1H-isobenzofuran-3,4′-piperidine]-1-carboxamide]: the IC50 was at most 50 nM.
The figure for `Cc1c(CN2CCC3(CC2)OC(C(N)=O)c2ccc(Cl)cc23)cnn1-c1ccccc1` (stereo not drawn) [Compound 213] is 50 to 500 nM; for `CS(=O)(=O)CCn1cc(CN2CCC3(CC2)OC(C(N)=O)c2ccc(Cl)cc23)cn1` (stereo not drawn) [Compound 214] it is at most 50 nM; for `Cc1ncc(CN2CCC3(CC2)OC(C(N)=O)c2ccc(Cl)cc23)cn1` (stereo not drawn) [Compound 215] it is at least 500 nM.
In the case of `Cn1cc(CN2CCC3(CC2)OC(C(N)=O)c2ccc(Cl)cc23)cn1` (stereo not drawn) [Compound 216] it was at most 50 nM; in that of `N#Cc1ccc(CN2CCC3(CC2)OC(C(N)=O)c2ccc(Cl)cc23)cc1` (stereo not drawn) [Compound 217], 50 to 500 nM.
The figure for `Cc1ccc(CN2CCC3(CC2)OC(C(N)=O)c2ccc(Cl)cc23)nn1` (stereo not drawn) [Compound 218] is at least 500 nM; for `NC(=O)C1OC2(CCN(Cc3cnn(C4CCS(=O)(=O)C4)c3)CC2)c2cc(Cl)ccc21` (stereo not drawn) [Compound 219] it is at most 50 nM; for `CC(C)n1cc(CN2CCC3(CC2)OC(C(N)=O)c2ccc(Cl)cc23)cn1` (stereo not drawn) [Compound 220] it is at least 500 nM.
Regarding `Cc1nc(CN2CCC3(CC2)OC(C(N)=O)c2ccc(Cl)cc23)co1` (stereo not drawn) [Compound 221], the IC50 is at least 500 nM.
The figure for `Cc1nc(CN2CCC3(CC2)OC(C(N)=O)c2ccc(Cl)cc23)c[nH]1` (stereo not drawn) [Compound 222] is at least 500 nM.
For the molecule `CS(=O)(=O)c1ccc(CN2CCC3(CC2)OC(C(N)=O)c2ccc(Cl)cc23)cc1` (stereo not drawn) [Compound 223], the IC50 is 50 to 500 nM.
In the case of `CS(=O)(=O)c1ccc(CN2CCC3(CC2)OC(C(N)=O)c2ccc(Cl)cc23)c(F)c1` (stereo not drawn) [Compound 224], the IC50 is at least 500 nM.
In the case of `NC(=O)c1ccc(CN2CCC3(CC2)OC(C(N)=O)c2ccc(Cl)cc23)cc1` (stereo not drawn) [Compound 225] it was at most 50 nM.
In the case of `NC(=O)C1OC2(CCN(Cc3cn[nH]c3)CC2)c2cc(Cl)ccc21` (stereo not drawn) [Compound 226, 5-chloro-1′-(1H-pyrazol-4-ylmethyl)spiro[1H-isobenzofuran-3,4′-piperidine]-1-carboxamide] it was at most 50 nM.
`Cc1ccc(CN2CCC3(CC2)OC(C(N)=O)c2ccc(Cl)cc23)cn1` (stereo not drawn) [Compound 227]: the IC50 was at most 50 nM.
On to `NC(=O)C1OC2(CCN(Cc3cnn4cccnc34)CC2)c2cc(Cl)ccc21` (stereo not drawn) [Compound 228], for which the IC50 was 50 to 500 nM.
Regarding `NC(=O)C1OC2(CCN(Cc3c[nH]c4ncncc34)CC2)c2cc(Cl)ccc21` (stereo not drawn) [Compound 229], the IC50 is at least 500 nM.
As for `CN1C(=O)Cc2ccc(CN3CCC4(CC3)OC(C(N)=O)c3ccc(Cl)cc34)cc21` (stereo not drawn) [Compound 230], the IC50 is at most 50 nM.

The values are drawn from patent publication US20250195483A1, “SPIRO PIPERIDINE DERIVATIVES AS INHIBITORS OF APOL1 AND METHODS OF USING SAME” (Vertex Pharmaceuticals Incorporated, priority 2022, published 2025).
